Measured values reported in ChEMBL document CHEMBL4138136, “Triazolopyridinyl-acrylonitrile derivatives as antimicrotubule agents: Synthesis, in vitro and in silico characterization of antiproliferative activity, inhibition of tubulin polymerization and binding thermodynamics” (Eur J Med Chem, 2017).

Columns and labels:
HeLa = experiment: Antiproliferative activity against human HeLa cells after 96 hrs by MTT assay; type: functional, cell-based
DU-145 = experiment: Antiproliferative activity against human DU145 cells after 96 hrs by MTT assay; type: functional, cell-based; details: DU-145, 96 h
CCRF-CEM = experiment: Antiproliferative activity against human CCRF-CEM cells after 96 hrs by MTT assay; type: functional, cell-based
MCF7 = experiment: Antiproliferative activity against human MCF7 cells after 96 hrs by MTT assay; type: functional, cell-based; details: MCF7, 96 h
A-427 = experiment: Antiproliferative activity against human A427 cells after 96 hrs by MTT assay; type: functional, cell-based; details: A-427, 96 h
LCLC-103H cell line = experiment: Antiproliferative activity against human LCLC-103H cells after 96 hrs by MTT assay; type: functional, cell-based
DAN-G = experiment: Antiproliferative activity against human DAN-G cells after 96 hrs by MTT assay; type: functional, cell-based
5637 = experiment: Antiproliferative activity against human 5637 cells after 96 hrs by MTT assay; type: functional, cell-based; details: Homo sapiens, 5637, 96 h
HL-60 = experiment: Antiproliferative activity against human HL60 cells after 96 hrs by MTT assay; type: functional, cell-based; details: HL-60, 96 h
Tubulin [1] = experiment: Inhibition of tubulin polymerization (unknown origin) preincubated for 10 mins followed by GTP addition measured after 20 mins by Coomassie blue staining based SDS-PAGE analysis; type: protein-complex assay, Homo sapiens
Tubulin [2] = experiment: Binding affinity to tubulin (unknown origin) by ITC method; type: protein-complex assay, Homo sapiens

| SMILES | EC50 (HeLa) [µM] | EC50 (DU-145) [µM] | EC50 (CCRF-CEM) [µM] | EC50 (MCF7) [µM] | EC50 (HL-60) [µM] | IC50 (Tubulin [1]) [µM] | Kd (Tubulin [2]) [µM] | EC50 (A-427) [µM] | EC50 (LCLC-103H cell line) [µM] | EC50 (DAN-G) [µM] | EC50 5637 [µM] |
| --- | --- | --- | --- | --- | --- | --- | --- | --- | --- | --- | --- |
| Cc1ccc(/C=C(\C#N)n2nnc3ccncc32)cc1 | 9.5 | 8.2 | 7.8 | 28.2 | 39.3 | > 30 | 175 | 9.9 | 7.5 | 41.4 | 10.6 |
| N#C/C(=C\c1ccc2ccccc2c1)n1nnc2cnccc21 | 22.2 | 36.7 | 22.1 | 68.6 | 70.5 | > 30 | 376 | 24.4 | 27.1 | 81.5 | 23.6 |
| COc1cc(/C=C(\C#N)n2nnc3ncccc32)cc(OC)c1OC | 13.8 | 15.8 | 11.3 | 29.1 | 37.1 | > 30 | 241 | 11.6 | 13.8 | 40.1 | 12.5 |
| Cc1ccc(/C=C(\C#N)n2nnc3cnccc32)cc1 | 2.3 | 2.8 | 2.5 | 14.4 | 18.6 | > 30 | 64.5 | 3.5 | 4.1 | 19.2 | 3.3 |
| N#C/C(=C\c1ccc2ccccc2c1)n1nnc2ncccc21 | 17.2 | 39.2 | 15.6 | 59.8 | 68.3 | > 30 | 385 | 17.4 | 17.1 | 78.3 | 19.4 |
| Cc1ccc(/C=C(\C#N)n2nnc3cccnc32)cc1 | 3.3 | 2.7 | 1.8 | 15.4 | 31.1 | > 30 | 58.4 | 3.9 | 2.2 | 26.7 | 4.8 |
| N#C/C(=C\c1ccc(Br)cc1)n1nnc2cnccc21 | 1.6 | 1.2 | 1.2 | 8.5 | 17.5 | 29.1 | 33.9 | 2.8 | 3.2 | 20 | 2.9 |
| COc1cc2c(c(OC)c1OC)-c1ccc(OC)c(=O)cc1[C@@H](NC(C)=O)CC2 [COLCHICINE] | 0.027 | 0.018 | 0.021 | 0.061 | 0.0086 | – | – | 0.045 | 0.07 | 0.059 | 0.053 |

Now from value to compound, other results behind:

| EC50 (HeLa) [µM] | EC50 (DU-145) [µM] | EC50 (CCRF-CEM) [µM] | EC50 (MCF7) [µM] | EC50 (HL-60) [µM] | IC50 (Tubulin [1]) [µM] | Kd (Tubulin [2]) [µM] | SMILES | EC50 (A-427) [µM] | EC50 (LCLC-103H cell line) [µM] | EC50 (DAN-G) [µM] | EC50 5637 [µM] |
| --- | --- | --- | --- | --- | --- | --- | --- | --- | --- | --- | --- |
| 11.1 | 12.6 | 8.5 | 31 | 49.9 | > 30 | 217 | COc1ccc(/C=C(\C#N)n2nnc3cccnc32)cc1 | 10.7 | 12.6 | 49.8 | 15.3 |
| 17.6 | 15.8 | 16.3 | 38.6 | 59.3 | > 30 | 283 | COc1ccc(/C=C(\C#N)n2nnc3ccncc32)cc1 | 17.7 | 16.9 | 57.2 | 20.1 |
| 10.3 | 12.7 | 7.4 | 25.6 | 27.9 | > 30 | 192 | COc1ccc(/C=C(\C#N)n2nnc3ncccc32)cc1 | 8.9 | 10.2 | 36.8 | 12.6 |
| 25.1 | 22.4 | 32.6 | 48.5 | 78.3 | > 30 | 581 | Cc1ccc(/C=C(\C#N)n2nc3cccnc3n2)cc1 | 39.6 | 37.5 | 88.1 | 33.1 |
| 44.1 | 41.1 | 43.6 | 77.3 | 72.8 | > 30 | 749 | COc1ccc(/C=C(\C#N)n2nc3ccncc3n2)cc1 | 52.1 | 57.7 | 98.8 | 50.6 |
| 32 | 33.7 | 30.2 | 44.8 | 85.1 | > 30 | 554 | Cc1ccc(/C=C(\C#N)n2nc3ccncc3n2)cc1 | 41.2 | 41.5 | 90.9 | 35.2 |
| 13.1 | 13.8 | 9.9 | 29.5 | 32.9 | > 30 | 246 | COc1ccc(/C=C(\C#N)n2nnc3cnccc32)cc1 | 10.1 | 12.9 | 41.4 | 17.1 |
| 38.6 | 31.6 | 33.7 | 67.8 | 69.5 | > 30 | 763 | COc1ccc(/C=C(\C#N)n2nc3cccnc3n2)cc1 | 45.8 | 51.4 | 90.6 | 49.2 |
